# Publication PMC11864979, “First-in-class ultralong-target-residence-time p38α inhibitors as a mitosis-targeted therapy for colorectal cancer” (Nature Cancer, 2025)
# Where “and” joins values, the source holds several entries; their conditions need not be identical. Equal entries are not always repeated.
# How the values were obtained:
# [1] = tested on: LS 174T; test: cell viability in human CRC cell line LS 174T; format: cell-based; conditions: for LS 174T Cell viability (%): 4 d
# Protocol: The cells were cultured at 37 °C and 7% CO2 with RPMI (KAP^2D cells) or DMEM (other cell lines), supplemented with 10% FBS and penicillin–streptomycin. […] No commonly misidentified cell lines were used. Mycoplasma contamination was excluded by a PCR-based analysis.
# [2] = tested on: PDO15; test: cell viability in patient-derived CRC organoids PDO15; format: cell-based, human
# Protocol: (§1) For in vitro treatment studies, organoids were mechanically dissociated and digested using TrypLE supplemented with 100 µg ml^−1 DNaseI and 10.5 µM Y-27632 dihydrochloride (Invitrogen) at 37 °C. A total of 1,000–2,000 single cells were plated per well in white 96-well plates (Greiner) in culture medium containing 10% GFR Matrigel or Cultrex BME. The treatment with doxycycline (5 µg ml^−1), pharmacological inhibitors or corresponding volumes of DMSO was started 24 h after plating. Doxycycline was obtained from Sigma-Aldrich. […] Cell viability was measured by means of CellTiter-Glo 3D or CellTiter-Glo 2.0 reagent (Promega) according to the manufacturers’ instructions and the Infinite M Plex reader (Tecan, i-control version 3.9.1 software). Results were normalized to vehicle (DMSO) or to shNC. For cell-doubling assays, the cell number was quantified at the corresponding time points using Guava EasyCyte flow cytometer (Luminex, CytoSoft v5.2 software).
# [3] = tested on: HCT-15; test: cell viability in human CRC cell line HCT-15; format: cell-based; conditions: for HCT-15 Cell viability (%): 4 d
# Protocol: To generate KAP^2D cells, KAP organoids were isolated from Matrigel, fragmented by mechanical dissociation and plated without any extracellular matrix on common cell culture dishes. Phoenix-Eco packaging cells (CRL-3214), HCT-15 (CCL-225), HCT 116 (CCL-247), COLO 205 (CCL-222), LS 174T (CL-188), RKO (CRL-2577) and HT-29 (HTB-38) were obtained from the American Type Culture Collection. The cells were cultured at 37 °C and 7% CO2 with RPMI (KAP^2D cells) or DMEM (other cell lines), supplemented with 10% FBS and penicillin–streptomycin. KAP^2D cells were authenticated using PCR (Kras locus and Trp53 locus). Phoenix-Eco packaging cells and HCT-15, HCT 116, COLO 205, LS 174T, RKO and HT-29 cells were authenticated by the provider using short tandem repeat profiling. No commonly misidentified cell lines were used. Mycoplasma contamination was excluded by a PCR-based analysis.
# as §1
# [4] = tested on: PDO13; test: cell viability in patient-derived CRC organoids PDO13; format: cell-based, human
# Protocol: as §1
compound,measurement,setting,value
"O=C1c2ccc(Nc3ccc(F)cc3F)cc2CCc2ccc(OC[C@H](O)CO)cc21 [SKL, skepinone-L, reference compound]",LS 174T Cell viability (%),[1]; 0.0137 µM,99.40% and 93.05% and 101.28% and 92.22%
same,LS 174T Cell viability (%),[1]; 0.0412 µM,92.09% and 86.77% and 91.37% and 88.68% and 85.53%
same,LS 174T Cell viability (%),[1]; 0.1235 µM,82.00% and 78.88% and 87.71% and 84.96%
same,LS 174T Cell viability (%),[1]; 0.3704 µM,80.28% and 77.65% and 86.62% and 87.42% and 86.17%
same,LS 174T Cell viability (%),[1]; 1.1111 µM,91.92% and 90.66% and 93.51% and 91.38% and 95.21%
same,LS 174T Cell viability (%),[1]; 3.3333 µM,99.97% and 97.60% and 100.77% and 96.22% and 98.37%
same,LS 174T Cell viability (%),[1]; 10.0000 µM,102.64% and 93.49% and 96.83% and 90.78% and 93.45%
same,viability at 0.0137 µM,"[1]; Homo sapiens, LS174T, 96 h, read-out: LS 174T Cell viability (%), 0.0137 µM, 4 d",100%
same,viability at 0.0412 µM,"[1]; Homo sapiens, LS174T, 96 h, read-out: LS 174T Cell viability (%), 0.0412 µM, 4 d",94.4%
same,viability at 0.1235 µM,"[1]; Homo sapiens, LS174T, 96 h, read-out: LS 174T Cell viability (%), 0.1235 µM, 4 d",92.9%
same,viability at 0.3704 µM,"[1]; Homo sapiens, LS174T, 96 h, read-out: LS 174T Cell viability (%), 0.3704 µM, 4 d",89%
same,viability at 1.1111 µM,"[1]; Homo sapiens, LS174T, 96 h, read-out: LS 174T Cell viability (%), 1.1111 µM, 4 d",102%
same,viability at 3.3333 µM,"[1]; Homo sapiens, LS174T, 96 h, read-out: LS 174T Cell viability (%), 3.3333 µM, 4 d",107%
same,viability at 10 µM,"[1]; Homo sapiens, LS174T, 96 h, read-out: LS 174T Cell viability (%), 10.0000 µM, 4 d",98.7%
same,viability at 0.5 µM,"[2]; Homo sapiens, 96 h, read-out: Cell viability (%), PDO15, 0.5 µM, 4 d",98%
same,viability at 1 µM,"[2]; Homo sapiens, 96 h, read-out: Cell viability (%), PDO15, 1 µM, 4 days",106%
same,Cell viability (%),"[2]; PDO15, 0.5 µM, 4 d, 0.5 µM",99.16% and 105.27%
same,Cell viability (%),"[2]; PDO15, 1 µM, 4 days, 1 µM",107.85% and 101.84%
same,HCT-15 Cell viability (%),[3]; 0.0137 µM,94.63% and 95.15% and 88.92% and 87.12% and 85.20%
same,HCT-15 Cell viability (%),[3]; 0.0412 µM,84.33% and 79.97% and 95.82% and 93.07% and 94.19%
same,HCT-15 Cell viability (%),[3]; 0.1235 µM,87.23% and 83.60% and 94.86% and 91.54% and 91.68%
same,HCT-15 Cell viability (%),[3]; 0.3704 µM,89.64% and 87.65% and 88.79% and 84.50% and 86.12%
same,HCT-15 Cell viability (%),[3]; 1.1111 µM,86.80% and 87.17% and 87.53% and 83.96% and 84.00%
same,HCT-15 Cell viability (%),[3]; 3.3333 µM,78.50% and 80.56% and 79.62% and 74.15% and 75.97%
same,HCT-15 Cell viability (%),[3]; 10.0000 µM,48.74% and 48.84% and 48.80% and 46.08% and 47.66%
same,viability at 0.0137 µM,"[3]; Homo sapiens, HCT-15, 96 h, read-out: HCT-15 Cell viability (%), 0.0137 µM, 4 d",96.7%
same,viability at 0.0412 µM,"[3]; Homo sapiens, HCT-15, 96 h, read-out: HCT-15 Cell viability (%), 0.0412 µM, 4 d",83.9%
same,viability at 0.1235 µM,"[3]; Homo sapiens, HCT-15, 96 h, read-out: HCT-15 Cell viability (%), 0.1235 µM, 4 d",87.5%
same,viability at 0.3704 µM,"[3]; Homo sapiens, HCT-15, 96 h, read-out: HCT-15 Cell viability (%), 0.3704 µM, 4 d",93.1%
same,viability at 1.1111 µM,"[3]; Homo sapiens, HCT-15, 96 h, read-out: HCT-15 Cell viability (%), 1.1111 µM, 4 d",93.5%
same,viability at 3.3333 µM,"[3]; Homo sapiens, HCT-15, 96 h, read-out: HCT-15 Cell viability (%), 3.3333 µM, 4 d",76.4%
same,viability at 10 µM,"[3]; Homo sapiens, HCT-15, 96 h, read-out: HCT-15 Cell viability (%), 10.0000 µM, 4 d",49.5%
same,viability at 0.5 µM,"[4]; Homo sapiens, 96 h, read-out: Cell viability (%), PDO13, 0.5 µM, 4 d",90.8%
same,viability at 1 µM,"[4]; Homo sapiens, 96 h, read-out: Cell viability (%), PDO13, 1 µM, 4 days",85.6%
same,Cell viability (%),"[4]; PDO13, 0.5 µM, 4 d, 0.5 µM",102.60% and 92.37%
